Test results reported in patent US4980359A, “Isoquinoline derivatives and their use” (Sandoz Ltd., priority 1988, dated 1990).

What was measured:
[1] = test system: guinea-pig tracheal ring preparations; assay: Bronchospasmolytic activity in vitro (relaxation of tracheal rings); conditions: Cavia porcellus; method A.1, guinea-pig tracheal rings in vitro
Source text: 1. Bronchospasmolytic activity in vitro
The trachea is excised from freshly sacrificed guinea-pigs (Dunkin-Hatley (350-500 g) and transected in the transverse plane to give rings of tissue of ca. 3-5 mm deep. Individual rings are mounted vertically on stainless steel supports, one of which is fixed at the base of an organ bath, the other being attached to an isometric transducer. The rings are bathed in Krebs solution (composition […]: NaHCO3 25, NaCl 113, KCl 4.7, MgSO4.7H2) 1.2, KHhd 2PO4 1.2, CaCl2 2.5, Glucose 11.7) at 37° C. and gassed with O2 /CO2 (95:5, v/v). Rings prepared in this manner, preloaded with 1 g, generate spontaneous tone and, after a period of equilibration (45-60 min.), relax consistently on addition of spasmolytic drugs. Tension can be enhanced by addition of carbachol (10^-6 M) or histamine (10^-4 M). To ascertain spasmolytic activity, test substances are dissolved in physiological saline and added in increasing quantities to the organ bath at 10 min. intervals to provide a cumulative concentration-effect curve.
In the above test model compounds of formula I and their pharmaceutically acceptable acid addition salts produce concentrationrelated relaxation of guinea-pig tracheal ring preparations irrespective of the contractile agency at concentrations of from about 10^-7 to about 10^-5 M.

[2] = test system: bombesin-induced bronchospasm; assay: Bronchodilator activity in vivo (reversal of bombesin-induced bronchospasm); set-up: species or system Guinea pigs (Dunkin-Hartley); conditions: Cavia porcellus, method A.2, intra. duodenally
Protocol: 2. Bronchodilator activity in vivo
Guinea pigs (Dunkin-Hartley, .male., 400-600 g) are anesthetized with phenobarbital (100-mg/kg i.p.) and pentobarbital (30 mg/kg i.p.) and paralyzed with gallamine (10 mg/kg i.m.). Animals are ventilated via a tracheal cannula (10 ml/kg, 1Hz.). Blood pressure and heart rate are recorded at the carotid artery. Ventilation is monitored by a Fleisch flow transducer in lien with the inspiratory circuit. When making measurements of flow, coincident pressure changes in the thorax are monitored directly via an intrathoracic trochar, permitting display of differential pressure relative to the trachea. From this information resistance and compliance are calculated at each inspiration.
Continuous intravenous infusion of bombesin (50-100 ng/kg/min) induces sustained bronchospasm. Capacity of test-substance to reverse response when administered intra-duodenally via a 12 gauge metal needle fixed by a purse string ligature into the peripheral end of the transected duodenum serves as a measure of efficacy in reversing established bronchospasm.
The bronchodilator response is taken as the percentage reduction of the maximal response to bombesin, measured at regular intervals, up to 64 mins..

[3] = test system: PAF-induced airways hyperreactivity; assay: Suppression of airways hyperreactivity, PAF-treated animals; format: in vivo, Guinea-pigs; conditions: Cavia porcellus, iv, method B
Protocol: Guinea-pigs are anesthetized and prepared for recording of lung function as described under example A.2. above. Intravenous injection of low dose bombesin (240 ng/kg) establishes airways sensitivity to spasmogens. Following infusion of PAF (platelet activating factor) over 1 hr.

[4] = test system: PAF-induced lung eosinophil accumulation; assay: Inhibition of eosinophil accumulation (PAF-induced lung eosinophilia); format: in vivo, Guinea-pigs (Dunkin-Hartley); conditions: Cavia porcellus, sc, 168 h, method C, over 7 days
Protocol: EXAMPLE C: INHIBITION OF EOSINOPHIL ACCUMULATION
Guinea-pigs (Dunkin-Hartley 400-600 g) are injected intraperitoneally with 10 μg/kg of PAF, a procedure which produces lung eosinophilia.
Animals are sacrificed with pentobarbital (100 mg/kg i.p.) 24 hours later. The trachea is exposed and cannulated and the airway lumen washed by introduction and aspiration of 10 ml aliquots (x6) of buffered modified Tyrode solution (composition mM: NaHCO3 11.9, NaCl 136.9, KCl 2.7, Na2 HPO4, glucose 5.6, EDTA 19.8; protein % w/v=gelatin 0.1, BSA 0.5; pH to 7.4 by addition of 2N NaOH). Total fluid recovery generally exceeds 80%.
Cell suspensions are concentrated by low speed centrifugation (200 g for 10 mins.) and the resulting cell pellet is resuspended in 1 ml modified Tyrode solution. Total cell counts are effected in a haemocytometer by diluting 10 μl cell suspension in 90 μl Turks fluid. Differential cell counts are made from smears fixed in 100% methanol and stained with Leishman stain. At least 500 cells smear are counted at 1000 fold magnification to differentiate cell types.
Test compound is administered over 7 days at varying concentration in 1 mg/kg s.c. amounts with exposure to PAF occurring 5 days after commencement of test compound administration. […]

Structure (SMILES)	IC50 [1]	ED50 [2]	ED50 [3]	ED50 [4]
COCCOc1cc(OCCOC)cc(-c2nc(C)cc3cc(OC)c(OC)cc23)c1 [Example 12, 3-methyl-6,7-dimethoxy-1-(3,5-dimethoxyethoxy-phenyl)-isoquinoline]	0.3 µM	~2 mg/kg	< 1 mg/kg	< 2 mg/kg
Cn1c(=O)c2[nH]cnc2n(C)c1=O [Theophylline, theophylline]	77 µM	11 mg/kg	5 mg/kg	5 mg/kg
